This is an account of results in patent US20070134261A1, “Effectors of innate immunity” (priority 2001, published 2007).

In brackets after ≈: the same amount, converted by molar mass. Where two headings read alike, the source gives them in different places. Residues, ends and D or L forms follow the SMILES beside them. No end group written: not given here.

The subject of data set [1] is human bronchial epithelial cells (HBE). Briefly: LDH release assay (Cytotoxicity Detection Kit). The data set is classed as cell-based. Conditions: 24 hours; for LDH Release (OD490 nm): 100 μg/ml, no peptide control 1.0 ± 0.05; for toxicity / membrane damage: as measured by both assays (LDH, WST-1), HBE cells. Here is the method:
(§1) The potential toxicity of the peptides was measured in two ways. First, the Cytotoxicity Detection Kit (Roche) (Lactate dehydrogenase-LDH) Assay was used. It is a colorimetric assay for the quantification of cell death and cell lysis, based on the measurement of LDH activity released from the cytosol of damaged cells into the supernatant. LDH is a stable cytoplasmic enzyme present in all cells and it is released into the cell culture supernatant upon damage of the plasma membrane. An increase in the amount of dead or plasma membrane-damaged cells results in an increase of the LDH enzyme activity in the culture supernatant as measured with an ELISA plate reader, OD490 nm (the amount of color formed in the assay is proportional to the number of lysed cells). In this assay, human bronchial epithelial cells (I6HBEo14, HBE) cells were incubated with 100 μg of peptide for 24 hours, the supernatant removed and tested for LDH. The other assay used to measure toxicity of the cationic peptides was the WST-1 assay (Roche). This assay is a colorimetric assay for the quantification of cell proliferation and cell viability, based on the cleavage of the tetrazolium salt WST-1 by mitochondrial dehydrogenases in viable cells (a non-radioactive alternative to the [^3H]-thymidine incorporation assay). In this assay, HBE cells were incubated with 100 μg of peptide for 24 hours, and then 10 μl/well Cell Proliferation Reagent WST-1 was added. The cells are incubated with the reagent and the plate is then measured with an ELISA plate reader, OD490 nm.
For orientation: LDH in the medium is a marker of cell lysis.

The subject of another data set is HBE cells. In words: WST-1 assay (cell viability). The data set is classed as cell-based, human. Here is the method: as §1
For orientation: Tetrazolium dyes change colour on reduction, which living cells bring about.

The format of data set [2] is cell-based.
The mark [3] stands for this setting: Citobacter rhodensis, overnight, 96-well plate.
Setting [4] is: Enterohaemorrhagic E. coli, overnight, 96-well plate.
[5] abbreviates: Escherichia coli, overnight, 96-well plate.
[6] abbreviates: Pseudomonas aeruginosa, overnight, 96-well plate.
[7] abbreviates: Salmonella enteritidis ssp. typhimurium, overnight, 96-well plate.
The mark [8] stands for this setting: Staphylococcus aureus, overnight, 96-well plate.

Turning to RKMVKVDVRGIMIRKDRR [SEQ ID NO: 29], the “LDH Release (OD490 nm)” value in data set [1] was 0.99 ± 0.02 OD490 nm. In the data set with HBE cells, the “OD490 nm (WST-1 cell viability)” value was found to be 1.75 ± 0.09 OD490 nm. Further, in data set [2] (24 h), the “MIC, C. rhod.” value came to 32 µg/mL; the “MIC, E. coli” value turned out to be 2 µg/mL; the “MIC, EHEC” value worked out at 4 µg/mL; the “MIC, S. typhim.” value was 16 µg/mL.

`CC[C@H](C)[C@H](NC(=O)[C@H](CC(C)C)NC(=O)[C@H](C)NC(=O)[C@@H]1CCCN1C(=O)[C@H](CC(C)C)NC(=O)CNC(=O)[C@@H](NC(=O)[C@@H](NC(=O)[C@H](CC(C)C)NC(=O)[C@@H](NC(=O)[C@H](CCCCN)NC(=O)[C@H](CCCCN)NC(=O)[C@H](CC(C)C)NC(=O)[C@H](C)NC(=O)[C@H](CCCCN)NC(=O)[C@H](CCSC)NC(=O)[C@H](CC(C)C)NC(=O)[C@H](CCSC)NC(=O)[C@H](CCCCN)NC(=O)[C@H](CC(C)C)NC(=O)[C@H](Cc1ccccc1)NC(=O)[C@H](CO)NC(=O)[C@H](CCCCN)NC(=O)[C@H](CO)NC(=O)[C@@H](N)CCCCN)C(C)C)[C@@H](C)O)[C@@H](C)O)C(=O)N[C@@H](CO)C(=O)O` [SEQ ID NO: 41]: in data set [1], the “LDH Release (OD490 nm)” value was found to be 3.3 ± 0.2 OD490 nm and the “toxicity / membrane damage” value is listed as “did induce membrane damage”. In the data set with HBE cells, the “OD490 nm (WST-1 cell viability)” value is 0.40 ± 0.01 OD490 nm. Moreover, the “MIC, C. rhod.” value in data set [2] (setting [3]) is 2 µg/mL (≈ 0.702 µM). Besides, the “MIC, EHEC” value in data set [2] (setting [4]) was 2 µg/mL (≈ 0.702 µM). Further, the “MIC, E. coli” value in data set [2] (setting [5]) worked out at 4 µg/mL (≈ 1.4 µM). The “MIC, P. aerug.” value in data set [2] (setting [6]) worked out at 8 µg/mL (≈ 2.81 µM). Further, the “MIC, S. typhim.” value in data set [2] (setting [7]) stood at 8 µg/mL (≈ 2.81 µM). In addition, the “MIC, S. aureus” value in data set [2] (setting [8]) stood at 64 µg/mL (≈ 22.5 µM).

Regarding “KQKLFAKMLMSALKKKTLVTTPLAGK [SEQ ID NO: 45]”, in data set [1], the “LDH Release (OD490 nm)” value was 0.98 ± 0.04 OD490 nm. Besides, in the data set on HBE cells, the “OD490 nm (WST-1 cell viability)” value is on record as 1.54 ± 0.35 OD490 nm. For the same molecule, in data set [2] (24 h), the “MIC, C. rhod.” value was 16 µg/mL; the “MIC, E. coli” value was 8 µg/mL; the “MIC, EHEC” value turned out to be 16 µg/mL; the “MIC, P. aerug.” value stood at 128 µg/mL. Moreover, in data set [2] (24 h), the “MIC, S. typhim.” value was 128 µg/mL.

In the case of `CC[C@H](C)[C@H](NC(=O)CNC(=O)[C@H](CCCNC(=N)N)NC(=O)[C@H](CCSC)NC(=O)[C@H](CO)NC(=O)[C@@H](NC(=O)[C@H](CCCNC(=N)N)NC(=O)[C@H](CCCNC(=N)N)NC(=O)[C@@H](NC(=O)[C@H](CS)NC(=O)[C@H](Cc1c[nH]cn1)NC(=O)[C@@H](N)CCCNC(=N)N)[C@@H](C)CC)C(C)C)C(=O)N[C@H](C(=O)N[C@@H](CCSC)C(=O)N[C@@H](CCCNC(=N)N)C(=O)N[C@@H](CCCNC(=N)N)C(=O)N[C@@H](CS)C(=O)N[C@@H](CCCCN)C(=O)O)[C@@H](C)CC` [SEQ ID NO: 38] (H-RHCIRRVSMRGIIMRRCK-OH), in data set [1], the “LDH Release (OD490 nm)” value was 0.95 ± 0.02 OD490 nm. The “OD490 nm (WST-1 cell viability)” value in the data set with HBE cells stood at 1.83 ± 0.03 OD490 nm. In data set [2] (24 h), the “MIC, C. rhod.” value stood at 8 µg/mL (≈ 3.52 µM); the “MIC, E. coli” value amounted to 0.5 µg/mL (≈ 0.22 µM); the “MIC, EHEC” value is 4 µg/mL (≈ 1.76 µM); the “MIC, P. aerug.” value came to 64 µg/mL (≈ 28.2 µM). Moreover, in data set [2] (24 h), the “MIC, S. aureus” value is 32 µg/mL (≈ 14.1 µM) and the “MIC, S. typhim.” value is 4 µg/mL (≈ 1.76 µM).

On to “KTKKFAKMLMMALKKVVSTAKPLAILS [SEQ ID NO: 42]”, for which, in data set [1], the “LDH Release (OD490 nm)” value came to 3.4 ± 0.2 OD490 nm and the “toxicity / membrane damage” value is listed as “did induce membrane damage”. For the same molecule, the “OD490 nm (WST-1 cell viability)” value in the data set on HBE cells came to 0.39 ± 0.08 OD490 nm. Further, in data set [2] (24 h), the “MIC, C. rhod.” value was 2 µg/mL; the “MIC, E. coli” value is 1.5 µg/mL; the “MIC, EHEC” value worked out at 1 µg/mL; the “MIC, P. aerug.” value came to 4 µg/mL. Also, in data set [2] (24 h), the “MIC, S. aureus” value is 64 µg/mL and the “MIC, S. typhim.” value turned out to be 2 µg/mL.

In the case of “KCKLFKKMLMLALKKVLTTGLPALKLTK [SEQ ID NO: 40]”, in data set [1], the “LDH Release (OD490 nm)” value turned out to be 2.8 ± 0.5 OD490 nm and the “toxicity / membrane damage” value was “did induce membrane damage”. Moreover, the “OD490 nm (WST-1 cell viability)” value in the data set with HBE cells is on record as 0.46 ± 0.06 OD490 nm. In addition, the “MIC, C. rhod.” value in data set [2] (setting [3]) stood at 4 µg/mL. For the same molecule, the “MIC, EHEC” value in data set [2] (setting [4]) is 2 µg/mL. Also, the “MIC, E. coli” value in data set [2] (setting [5]) came out at 4 µg/mL. In data set [2] (setting [6]), the “MIC, P. aerug.” value came out at 8 µg/mL. Moreover, the “MIC, S. typhim.” value in data set [2] (setting [7]) worked out at 4 µg/mL. The “MIC, S. aureus” value in data set [2] (setting [8]) stood at 32 µg/mL.
